From patent US20250179027A1, “CYCLOALKYL OR HETEROCYCLYL SUBSTITUTED HETEROARYL COMPOUND, AND COMPOSITION AND USE THEREOF” (Shenzhen TargetRx, Inc., priority 2022, published 2025)

Legend:
[1] = target: T1, phosphorylated BTK Y223 in NIH/3T3 BTK WT cells (Homo sapiens, UniProt Q06187); experiment: Phosphor-BTK(Y223) assay, NIH/3T3 BTK WT cells; assay type: cell-based; conditions: phosphorylated BTK Y223, NIH/3T3 BTK WT cells; read-out: NIH/3T3 BTK-WT pBTK IC50
T1 construct: expressed in transfected cells; host or cells: NIH/3T3 (mouse fibroblasts) engineered to express BTK WT
Protocol: (§1) The purpose of this assay is to simply, quickly and directly detect the endogenous level of BTK in cells. The specific assay steps are as follows: Day 1: NIH/3T3 BTK WT cells (7.5 k/well) and NIH/3T3 BTK C481S cells (10 k/well) were plated in 96-well plates, respectively, and cultured overnight at 37° C. and 5% CO2.
(§2) • 1. A 3-fold final concentration gradient dilution of the compound was prepared, and 50 μL was added to 100 μL of cell culture; 0.5% DMSO was used as a positive control for cell growth. • 2. The plate was incubated at 37° C., 5% CO2 for 0.5 h. • 3. Na3VO4 with a final concentration of 1 mM was added, and incubated at 37° C. and 5% CO2 for 2 hours. • 4. During the incubation, the following reagents were prepared: 1× added lysis buffer: 3 vol ddH2O+1 vol 4× lysis buffer+100× blocking reagent. p-BTK (Y223) cryptate-antibody and p-BTK (Y223) d2-antibody working solutions: 1 volume of each cryopreserved antibody (stored at −20° C.) was added to 19 times volumes of assay buffer (stored at 4° C.). • 5. After the incubation, the medium was removed and 50 μL of 1× added lysis buffer was added; The mixture was centrifuged at 500 rpm for 30 min at room temperature. • 6. The lysate was mixed well and 16 μL was transferred to a 384-well plate; 1× added lysis buffer was used as a blank control. • 7. 4 μL of pre-mixed working solutions of the two antibodies (cryptate Ab:d2 Ab=1:1) were added and the plate was sealed. • 8. The plate was incubated overnight at room temperature.
(§3) Biotek cytation3.0 microplate reader was used to read the plate at 665 nm and 620 nm, and the ratio of 665/620 nm per well was calculated.
(§4) IC50 was calculated using GraphPad Prism 7.0 software.
(§5) The following nonlinear fitting formula was used to obtain the phosphorylated BTK Y223 IC50 (half phosphorylation inhibitory concentration) of the compounds:
(§6) [formula] • X: Compound concentration log value • Y: Inhibition rate (% inhibition)
(§7) The formula for calculating cell phosphorylation inhibition rate (% inhibition rate) was: […]

[2] = target: T2, phosphorylated BTK Y223 in NIH/3T3 BTK C481S cells (Homo sapiens, UniProt Q06187, C481S); experiment: Phosphor-BTK(Y223) assay, NIH/3T3 BTK C481S cells; assay type: cell-based; conditions: phosphorylated BTK Y223, NIH/3T3 BTK C481S cells; read-out: NIH/3T3 BTK-C481S pBTK IC50
T2 construct: expressed in transfected cells; host or cells: NIH/3T3 (mouse fibroblasts) engineered to express BTK C481S
Protocol: as §1, §2, §3, §4, §5, §6, §7

T2 sequence (Q06187 whole entry C481S): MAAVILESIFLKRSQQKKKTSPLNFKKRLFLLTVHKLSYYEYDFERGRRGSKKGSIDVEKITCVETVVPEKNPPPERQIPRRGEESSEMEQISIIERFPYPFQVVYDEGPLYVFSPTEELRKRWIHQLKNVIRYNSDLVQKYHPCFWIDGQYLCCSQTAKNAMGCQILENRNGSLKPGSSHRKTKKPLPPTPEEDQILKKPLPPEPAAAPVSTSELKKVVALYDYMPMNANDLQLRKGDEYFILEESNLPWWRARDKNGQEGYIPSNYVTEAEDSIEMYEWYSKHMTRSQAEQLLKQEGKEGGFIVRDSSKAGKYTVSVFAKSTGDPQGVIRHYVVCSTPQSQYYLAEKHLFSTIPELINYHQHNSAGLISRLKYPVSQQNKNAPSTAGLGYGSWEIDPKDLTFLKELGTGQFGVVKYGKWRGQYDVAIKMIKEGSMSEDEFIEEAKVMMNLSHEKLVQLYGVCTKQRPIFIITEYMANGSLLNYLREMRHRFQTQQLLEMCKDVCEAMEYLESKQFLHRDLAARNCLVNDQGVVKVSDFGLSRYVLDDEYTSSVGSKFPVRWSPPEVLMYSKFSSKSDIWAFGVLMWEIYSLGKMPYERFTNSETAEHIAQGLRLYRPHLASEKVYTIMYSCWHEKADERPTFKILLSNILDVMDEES
T1 sequence (Q06187 whole entry): as the sequence (Q06187 whole entry C481S) above, with S481C counted along it

Row | IC50 [1] [nM] | IC50 [2] [nM] | Compound
1 | ≤ 25 | 25 to 50 | COc1ccc(F)cc1C(=O)NCc1ccc(-c2cc(C3CCC(CO)OC3)n3ncnc(N)c23)cc1 (centres unmarked) [Example 58, N-(4-(4-amino-7-(6-(hydroxymethyl)tetrahydro-2H-pyran-3-yl)pyrrolo[2,1-f][1,2,4]triazin-5-yl)benzyl)-5-fluoro-2-methoxybenzamide]
2 | 25 to 50 | 25 to 50 | COc1ccc(F)cc1C(=O)NCc1ccc(-c2nn(C3CCCC(C)(O)C3)c3ncnc(N)c23)cc1 (single isomer, unassigned) [Example 25, N-(4-(4-amino-1-(3-hydroxy-3-methylcyclohexanyl)-1H-pyrazolo[3,4-d]pyrimidin-3-yl)benzyl)-5-fluoro-2-methoxybenzamide]
3 | 25 to 50 | 50 to 100 | COc1ccc(F)cc1C(=O)NCc1ccc(-n2cc(C3CCC(CO)OC3)c3ncnc(N)c32)cc1 (single isomer, unassigned) [Example 51, N-(4-(4-amino-7-(6-(hydroxymethyl)tetrahydro-2H-pyran-3-yl)-5H-pyrrolo[3,2-d]pyrimidin-5-yl)benzyl)-5-fluoro-2-methoxybenzamide]
4 | 50 to 100 | 100 to 500 | COc1ccc(F)cc1C(=O)NCc1ccc(-c2nn(C3CCC(CO)OC3)c(N)c2C(N)=O)cc1 (single isomer, unassigned) [Example 13, 5-amino-3-(4-((5-fluoro-2-methoxybenzamido)methyl)phenyl)-1-(6-(hydroxymethyl)tetrahydro-2H-pyran-3-yl)-1H-pyrazole-4-carboxamide]
5 | 25 to 50 | 50 to 100 | COc1ccc(F)cc1C(=O)NCc1ccc(-c2nn(C3CCCC(C)(O)C3)c3ncnc(N)c23)cc1 (single isomer, unassigned) [Example 26, N-(4-(4-amino-1-(3-hydroxy-3-methylcyclohexanyl)-1H-pyrazolo[3,4-d]pyrimidin-3-yl)benzyl)-5-fluoro-2-methoxybenzamide]
6 | 50 to 100 | 50 to 100 | COc1ccc(F)cc1C(=O)NCc1ccc(-c2nn(C3CCC(O)C3)c3c(=O)[nH]nc(N)c23)cc1 (centres unmarked) [Example 42, N-(4-(4-amino-1-(3-hydroxycyclopentanyl)-7-oxo-6,7-dihydro-1H-pyrazolo[3,4-d]pyridazin-3-yl)benzyl)-5-fluoro-2-methoxybenzamide]
7 | ≤ 25 | 25 to 50 | COc1ccc(F)cc1C(=O)NCc1ccc(-c2cc(C3CCC(CO)OC3)n3ncnc(N)c23)cc1 (single isomer, unassigned) [Example 62, N-(4-(4-amino-7-(6-(hydroxymethyl)tetrahydro-2H-pyran-3-yl)pyrrolo[2,1-f][1,2,4]triazin-5-yl)benzyl)-5-fluoro-2-methoxybenzamide]
8 | ≤ 25 | ≤ 25 | COc1ccc(F)cc1C(=O)NCc1ccc(-c2nn([C@H]3CCC[C@H](O)C3)c3ncnc(N)c23)cc1 (racemic) [Example 9, trans-N-(4-(4-amino-1-(3-hydroxycyclohexanyl)-1H-pyrazolo[3,4-d]pyrimidin-3-yl)benzyl)-5-fluoro-2-methoxybenzamide]
9 | ≤ 25 | 25 to 50 | COc1ccc(F)cc1C(=O)NCc1ccc(-c2nn(C3CCCC(C)(O)C3)c3ncnc(N)c23)cc1 (single isomer, unassigned) [Example 27, N-(4-(4-amino-1-(3-hydroxy-3-methylcyclohexanyl)-1H-pyrazolo[3,4-d]pyrimidin-3-yl)benzyl)-5-fluoro-2-methoxybenzamide]
10 | ≤ 25 | 25 to 50 | COc1ccc(F)cc1C(=O)NCc1ccc(-c2nn([C@@H]3C=C[C@@H](O)C3)c3ncnc(N)c23)cc1 (single isomer, unassigned) [Example 38, trans-N-(4-(4-amino-1-(4-hydroxycyclopent-2-en-1-yl)-1H-pyrazolo[3,4-d]pyrimidin-3-yl)benzyl)-5-fluoro-2-methoxybenzamide]
11 | 50 to 100 | 100 to 500 | COc1ccc(F)cc1C(=O)NCc1ccc(-c2nn(C3CCC(CO)OC3)c3ncnc(N)c23)cc1 (single isomer, unassigned) [Example 16, N-(4-(4-amino-1-(6-(hydroxymethyl)tetrahydro-2H-pyran-3-yl)-1H-pyrazolo[3,4-d]pyrimidin-3-yl)benzyl)-5-fluoro-2-methoxybenzamide]
12 | 100 to 500 | 100 to 500 | COc1ccc(F)cc1C(=O)NCc1ccc(-c2nn(C3CCC(CO)OC3)c3ncnc(N)c23)cc1 (single isomer, unassigned) [Example 17, N-(4-(4-amino-1-(6-(hydroxymethyl)tetrahydro-2H-pyran-3-yl)-1H-pyrazolo[3,4-d]pyrimidin-3-yl)benzyl)-5-fluoro-2-methoxybenzamide]
13 | ≤ 25 | 25 to 50 | COc1ccc(F)cc1C(=O)NCc1ccc(-c2nn(C3CCCC(C)(O)C3)c3ncnc(N)c23)cc1 (single isomer, unassigned) [Example 28, N-(4-(4-amino-1-(3-hydroxy-3-methylcyclohexanyl)-1H-pyrazolo[3,4-d]pyrimidin-3-yl)benzyl)-5-fluoro-2-methoxybenzamide]
14 | 25 to 50 | 50 to 100 | COc1ccc(F)cc1C(=O)NCc1ccc(-c2nn([C@@H]3C=C[C@@H](O)C3)c3ncnc(N)c23)cc1 (single isomer, unassigned) [Example 37, trans-N-(4-(4-amino-1-(4-hydroxycyclopent-2-en-1-yl)-1H-pyrazolo[3,4-d]pyrimidin-3-yl)benzyl)-5-fluoro-2-methoxybenzamide]
15 | ≤ 25 | 25 to 50 | COc1ccc(F)cc1C(=O)NCc1ccc(-c2nn([C@@H]3C=C[C@@H](O)C3)c3ncnc(N)c23)cc1 (single isomer, unassigned) [Example 50, trans-N-(4-(4-amino-1-(4-hydroxycyclopent-2-en-1-yl)-1H-pyrazolo[3,4-d]pyrimidin-3-yl)benzyl)-5-fluoro-2-methoxybenzamide]
16 | 25 to 50 | 50 to 100 | COc1ccc(F)cc1C(=O)NCc1ccc(-c2nc(C3CCCC(O)C3)n3ccnc(N)c23)cc1 (single isomer, unassigned) [Example 21, N-(4-(8-amino-3-(3-hydroxycyclohexanyl)imidazo[1,5-a]pyrazin-1-yl)benzyl)-5-fluoro-2-methoxybenzamide]
17 | 50 to 100 | 100 to 500 | COc1ccc(F)cc1C(=O)NCc1ccc(-c2nn(C3CCC(CO)OC3)c(N)c2C(N)=O)cc1 (single isomer, unassigned) [Example 14, 5-amino-3-(4-((5-fluoro-2-methoxybenzamido)methyl)phenyl)-1-(6-(hydroxymethyl)tetrahydro-2H-pyran-3-yl)-1H-pyrazole-4-carboxamide]
18 | ≤ 25 | ≤ 25 | COc1ccc(F)cc1C(=O)NCc1ccc(-c2nn(C3CCC(O)C3)c3ncnc(N)c23)cc1 (centres unmarked) [Example 32, N-(4-(4-amino-1-(3-hydroxycyclopentanyl)-1H-pyrazolo[3,4-d]pyrimidin-3-yl)benzyl)-5-fluoro-2-methoxybenzamide]
19 | ≤ 25 | 25 to 50 | COc1ccc(F)cc1C(=O)NCc1ccc(-c2cc(C3CCC(CO)OC3)n3ncnc(N)c23)cc1 (single isomer, unassigned) [Example 61, N-(4-(4-amino-7-(6-(hydroxymethyl)tetrahydro-2H-pyran-3-yl)pyrrolo[2,1-f][1,2,4]triazin-5-yl)benzyl)-5-fluoro-2-methoxybenzamide]
20 | 50 to 100 | 100 to 500 | COc1ccc(F)cc1C(=O)NCc1ccc(-n2cc(C3CCC(CO)OC3)c3ncnc(N)c32)cc1 (single isomer, unassigned) [Example 52, N-(4-(4-amino-7-(6-(hydroxymethyl)tetrahydro-2H-pyran-3-yl)-5H-pyrrolo[3,2-d]pyrimidin-5-yl)benzyl)-5-fluoro-2-methoxybenzamide]
21 | 100 to 500 |  | COc1ccc(F)cc1C(=O)NCc1ccc(-c2nn(C3CCC(CO)OC3)c3c(=O)[nH]nc(N)c23)cc1 (single isomer, unassigned) [Example 48, N-(4-(4-amino-1-(6-(hydroxymethyl)tetrahydro-2H-pyran-3-yl)-7-oxo-6,7-dihydro-1H-pyrazolo[3,4-d]pyridazin-3-yl)benzyl)-5-fluoro-2-methoxybenzamide]
